Results taken from article PMC6476928 (Frontiers in Pharmacology, 2019).

What was measured:
kv4.1 = conditions: 5µM, X. laevis oocytes; cited from earlier work
From the text: Supplement Data_Sheet_1.docx, table 1: Supplementary Table 1.Activity of spider toxins on Kv2 and Kv4 channel subtypes Activities of spider toxins against different subtypes of Kv2 and Kv4 potassium channels are reported as IC50 (nanomolar) or as percentage of current inhibition at a single dose (nanomolar). Affinity (IC50) measurements | column: kv4.1

Kv4.2 = molecular target: T1, Kv4.2 (Homo sapiens, UniProt Q9NZV8); test: Whole-cell patch clamp of WT Kv4.2 co-expressed with KChIP2 in HEK293T cells; format: cell-based; design: expressed in transfected cells; host or cells: HEK293T
T1 sequence (Q9NZV8 1-630): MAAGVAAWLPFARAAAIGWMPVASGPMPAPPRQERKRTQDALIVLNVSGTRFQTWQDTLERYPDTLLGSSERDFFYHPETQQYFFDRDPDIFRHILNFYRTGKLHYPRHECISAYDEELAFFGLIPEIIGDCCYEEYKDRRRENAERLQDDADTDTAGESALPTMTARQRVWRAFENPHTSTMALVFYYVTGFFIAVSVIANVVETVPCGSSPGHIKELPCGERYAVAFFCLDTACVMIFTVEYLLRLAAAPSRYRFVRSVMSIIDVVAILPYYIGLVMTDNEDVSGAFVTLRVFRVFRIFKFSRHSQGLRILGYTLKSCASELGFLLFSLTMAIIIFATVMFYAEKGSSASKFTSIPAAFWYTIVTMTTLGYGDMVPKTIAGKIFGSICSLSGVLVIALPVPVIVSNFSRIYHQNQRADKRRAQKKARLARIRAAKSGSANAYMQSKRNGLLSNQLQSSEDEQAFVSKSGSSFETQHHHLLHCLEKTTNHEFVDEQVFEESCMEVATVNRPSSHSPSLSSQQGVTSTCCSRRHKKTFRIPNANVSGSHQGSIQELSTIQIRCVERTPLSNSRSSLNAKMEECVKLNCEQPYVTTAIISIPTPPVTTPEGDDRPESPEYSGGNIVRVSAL
T1 sequence (Q9NS61 1-270 partner): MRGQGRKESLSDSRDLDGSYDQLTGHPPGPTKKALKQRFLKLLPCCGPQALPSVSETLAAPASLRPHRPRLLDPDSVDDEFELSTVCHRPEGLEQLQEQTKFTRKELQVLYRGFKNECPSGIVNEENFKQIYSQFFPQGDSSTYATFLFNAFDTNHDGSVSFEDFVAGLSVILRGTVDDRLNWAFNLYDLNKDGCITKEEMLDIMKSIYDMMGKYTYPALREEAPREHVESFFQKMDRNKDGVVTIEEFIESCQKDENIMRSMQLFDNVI
Method: Human embryonic kidney cell line (HEK293T) was obtained from Shanghai Institute of Cell Biology, Chinese Academy of Sciences (Shanghai, China) and maintained with 5% CO2 at 37°C in DMEM supplemented with 10% heat-inactivated fetal calf and serum (FBS), penicillin (100 U/ml), and streptomycin (100 μg/ml). The WT/mutant Kv4.2 plasmids were transiently transfected into HEK293T by Lipofectamine^TM 2000 Reagent (Invitrogen), and the KChIP2 subunits were co-transfected with Kv4.2.
The extracellular buffer and pipette solution for AP, Ito, and Kv4.2 were used as follows.
Kv4.2 current, The pipette solution contained (mM) 140 KF, 5 ATP-2Na, 1 EGTA, and 10 HEPEs (pH = 7.4). […] The Kv4.2 currents were elicited by a 300-ms depolarizing voltage of 10 mV from a holding potential of −80 mV. The steady-state activation of Kv4.2 was measured with the holding potential −80 mV and applied from −80 mV to 70 mV (10-mV increments). Steady-state inactivation of Kv4.2 channel measured with a series of a 300-ms depolarizing test potential of 10 mV followed a 1000-ms prepulse at potentials ranging from −120 to +70 mV with a 5-mV increment.
Data were analyzed using the clampfit (Axon) and Origin 9 software programs. All data points are shown as mean SEM. The significance was estimated using unpaired two-tailed t-tests, and a P < 0.05 was considered statistically significant. n stands for the number of the separate experimental cells. […] The steady-state activation relationship was measured using Boltzmann function (f(V) = 1/{1 + exp[−(V−V1/2)/k]}^4). Steady-state inactivation was measured using the Boltzmann function f(V) = 1/{1 + exp[−(V − V1/2)/k]}.

[1] = system: action potential of NRVMs; test: Action potential recording in neonatal rat ventricular myocytes; format: cell-based; conditions: 100 nM JZTX-V
From the text: Neonatal rat ventricular myocytes cells were obtained from ventricles of neonatal Sprague–Dawley rats as previously reported ([Sung et al., 2012]; [Yan et al., 2018]). SD rats (Hunan SJA Laboratory Animal Co., Ltd., Changsha, China) were used according to the guidelines of the National Institutes of Health for Care and Use of Laboratory Animals. The experiments were approved by the Animal Care and Use Committee of Hunan Normal University.
The APs, Pipette solution contained (mM) 120 KCl, 1 MgCl2, 10 EGTA, 10 Hepes, and 3 MgATP (pH = 7.4). The extracellular buffer contained (mM) 140 NaCl, 5.4 KCl, 1.3 CaCl2, 0.5 MgCl2, 5 Hepes, and 5.5 glucose (pH = 7.4).
All data points are shown as mean SEM.

kv2.1 = conditions: 5µM, X. laevis oocytes; cited from earlier work
From the text: Supplement Data_Sheet_1.docx, table 1: Supplementary Table 1.Activity of spider toxins on Kv2 and Kv4 channel subtypes Activities of spider toxins against different subtypes of Kv2 and Kv4 potassium channels are reported as IC50 (nanomolar) or as percentage of current inhibition at a single dose (nanomolar). Affinity (IC50) measurements | column: kv2.1 || Animal toxins target ion channels, and are thus valuable resources with potential therapeutic applications. The Kv4 subfamily from scorpion ([Maffie et al., 2013]; [Xie et al., 2014]) and spider venom ([Escoubas et al., 2002]; [Ebbinghaus et al., 2004]; [Yuan et al., 2007], [2012]; [DeSimone et al., 2009]) has a rich toxin pharmacology. HaTx, originally isolated from venom of the Chilean rose tarantula (Grammostola spatulata), inhibits Kv4.2 channels effectively, with similar affinity for Kv2.1 ([Swartz and MacKinnon, 1995]; [Swartz, 2007]). Other Kv4 channel inhibitors, Stromatoxin (ScTx1) fr ...

SMILES: CC[C@H](C)[C@H](NC(=O)[C@@H](NC(=O)[C@H](CCCCN)NC(=O)[C@H](CCCNC(=N)N)NC(=O)[C@@H]1CSSC[C@@H]2NC(=O)[C@H](C)NC(=O)[C@H](CCCNC(=N)N)NC(=O)[C@H](CCCCN)NC(=O)[C@H](CO)NC(=O)[C@H](CC(=O)O)NC(=O)[C@@H]3CSSC[C@H](NC(=O)[C@H](CCCNC(=N)N)NC(=O)[C@H](CC(C)C)NC(=O)CNC(=O)[C@H](CCC(=O)O)NC(=O)[C@H](CSSC[C@H](NC(=O)[C@@H](N)Cc4ccc(O)cc4)C(=O)N[C@@H](CCC(N)=O)C(=O)N[C@@H](CCCCN)C(=O)N[C@@H](Cc4c[nH]c5ccccc45)C(=O)N[C@@H](CCSC)C(=O)N[C@@H](Cc4c[nH]c5ccccc45)C(=O)N[C@@H]([C@@H](C)O)C(=O)N3)NC2=O)C(=O)N[C@@H](CCCCN)C(=O)N[C@@H](CC(C)C)C(=O)N[C@@H](Cc2c[nH]c3ccccc23)C(=O)N1)[C@@H](C)CC)C(=O)O [JZTX-V, Jingzhaotoxin-V]
- percentage of current inhibition kv4.1 (kv4.1): 25% (5µM) O
- inhibition at 0.1 µM (Kv4.2; HEK-293T, read-out: inhibition of Kv4.2 potassium current): > 90%
- V1/2 of steady-state activation (G–V curve) (Kv4.2; in presence of 10 nM JZTX-V, +20 mV in absence): +30 mV
- half-maximal inactivation potential (Vin1/2) (Kv4.2; in presence of 10 nM JZTX-V, −44.5 mV without): −50.0 mV
- APD10 compared with vehicle-treated group ([1]; 1 Hz, N = 5): 123.53 ± 4.23%
- APD50 compared with vehicle-treated group ([1]; 1 Hz, N = 5): 124.34 ± 3.17%
- APD90 compared with vehicle-treated group ([1]; 1 Hz, N = 5): 126.26 ± 3.23%
- effect on APD10–50 ([1]; N = 5): did not affect
- effect on APD50–90 ([1]; N = 5): did not affect
- APD10 after treatment ([1]; control 12 ± 1 ms): 15 ± 1.7 ms
- APD50 after treatment ([1]; control 88 ± 6 ms): 109 ± 8 ms
- APD90 after treatment ([1]; control 245 ± 7 ms): 309 ± 10 ms
- percentage of current inhibition kv2.1 (kv2.1): 35% (5µM) O
